From patent EP4603105A1, “PHARMACEUTICAL COMPOSITION CONTAINING CYCLIC COMPOUND HAVING SELECTIVE KRAS INHIBITORY EFFECT AGAINST HRAS AND NRAS” (CHUGAI SEIYAKU KABUSHIKI KAISHA, priority 2022, dated 2024)
*1 amine or outer side, *2 acyl side, *3 side chain or, on linkers, in order; H or OH if unused. Where a SMILES comes first, the peptide text is derived from it. Bridges are numbered along the chain shown (N, C = ends). [ ]: non-standard residue; d: D form. The star is where a group is joined. hPhe(3-Cl-4-CF3) = N[C@@H](CCc1ccc(C(F)(F)F)c(Cl)c1)C(=O)O; NPrPhe(4-CF3) = CCCN[C@@H](Cc1ccc(C(F)(F)F)cc1)C(=O)O; X40 = Cc1ccc(C[C@@H](C(=O)[*:2])N(CC(C)C)[*:1])cc1; NMeGly(cPent) = CN[C@H](C(=O)O)C1CCCC1; Pro(4,4-F2) = O=C(O)[C@@H]1CC(F)(F)CN1; NMeChg = CN[C@H](C(=O)O)C1CCCCC1; NMeD = CN[C@@H](CC(=O)O)C(=O)O; Ac4c(3-oxa) = NC1(C(=O)O)COC1; NMeL = CN[C@@H](CC(C)C)C(=O)O; Morpholide = C1CN(*)CCO1; NMeA = CN[C@@H](C)C(=O)O; Ac5c = NC1(C(=O)O)CCCC1; Aze = O=C(O)[C@@H]1CCN1; Ac4c = NC1(C(=O)O)CCC1; Sar = CNCC(=O)O

Experiments:
[1] = molecular target: GDP-bound NRAS wild-type protein (Homo sapiens, UniProt P01111); test: Binding to NRAS by surface plasmon resonance (SPR), KD and KD ratio to KRAS
Sequence of GDP-bound NRAS wild-type protein (P01111 whole entry): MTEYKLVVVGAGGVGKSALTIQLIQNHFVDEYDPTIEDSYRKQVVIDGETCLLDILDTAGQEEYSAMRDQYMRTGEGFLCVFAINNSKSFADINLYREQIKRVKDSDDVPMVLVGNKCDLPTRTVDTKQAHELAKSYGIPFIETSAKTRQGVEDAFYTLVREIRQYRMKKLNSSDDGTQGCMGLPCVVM
Method in brief: (§1)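 Measured at 30°C: SPR with GDP-loaded, E. coli-expressed biotin-Avi RAS captured (~100–300 RU), ascending 75 s compound injections, HBS pH 7.4 with GDP, MgCl2, 4% DMSO. KD from 1:1 fit.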

HRAS wild-type protein = HRAS wild-type protein (Homo sapiens, UniProt P01112); test: Binding to HRAS by surface plasmon resonance (SPR), KD and KD ratio to KRAS
Sequence of HRAS wild-type protein (P01112 whole entry): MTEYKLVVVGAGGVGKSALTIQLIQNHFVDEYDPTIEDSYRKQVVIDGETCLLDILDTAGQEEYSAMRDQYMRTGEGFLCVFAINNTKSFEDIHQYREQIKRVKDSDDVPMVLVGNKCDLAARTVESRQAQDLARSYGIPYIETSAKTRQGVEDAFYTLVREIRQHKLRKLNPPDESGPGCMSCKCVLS
Method in brief: as §1

[2] = tested on: human lung cancer strain NCI-H441; assay type: cell-based
Method in brief: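 Signal came from […] measured per well once the reagent was added. Beforehand, cells were cultured at 37°C and 5% carbon dioxide on a compound series serially diluted in dimethyl sulfoxide.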

[3] = ratio of KD for GDP-bound NRAS wild-type protein to KD for KRAS
[4] = ratio of KD for HRAS wild-type protein to KD for KRAS
[5] = ratio of the KD value with respect to GDP-bound NRAS wild-type protein to the KD value with respect to KRAS
[6] = ratio of the KD value with respect to HRAS wild-type protein to the KD value with respect to KRAS

| IC50 [2] [nM] | SMILES | NRAS /KRAS [1, 3] | HRAS /KRAS (HRAS wild-type protein; [4]) | NRAS /KRAS [1, 5] | HRAS /KRAS (HRAS wild-type protein; [6]) | NRAS /KRAS ([1]; ratio of KD value for GDP-bound NRAS wild-type protein to KD value for KRAS (SPR)) | HRAS /KRAS (HRAS wild-type protein; ratio of KD value for HRAS wild-type protein to KD value for KRAS (SPR)) |
| --- | --- | --- | --- | --- | --- | --- | --- |
| 2.6 | CCC[C@H]1C(=O)N[C@@H]([C@@H](C)CC)C(=O)N2CCC[C@H]2C(=O)N(C)[C@H]2C/C=C\CCN(C2=O)[C@@H](Cc2ccc(C)cc2)C(=O)N(C)CC(=O)N[C@@H](CCc2cc(F)c(C(F)(F)F)c(F)c2)C(=O)N2C[C@H](OCC)C[C@H]2C(=O)N(C)C2(CCC2)C(=O)N(C)[C@@H](C2CCCC2)C(=O)N(C)[C@H](C(=O)N2CCCC2)CC(=O)N1C [PP3117] | A (a compound having 10 or more and less than 20 is denoted as A) | A (a compound having 10 or more and less than 20 is denoted as A) |  |  |  |  |
| 47.6 | CCCN1C(=O)[C@@H]2CCN2C(=O)[C@H](C)N(C)C(=O)[C@H]([C@@H](C)CC)NC(=O)[C@H](CC(C)C)N(C)C(=O)C[C@@H](C(=O)N2CCOCC2)NC(=O)[C@H](C2CCCC2)N(C)C(=O)C2(CCCC2)NC(=O)[C@@H]2CCCN2C(=O)[C@H](CCc2ccc(C(F)(F)F)c(Cl)c2)NC(=O)CN(C)C(=O)[C@@H]1Cc1ccc(C(F)(F)F)cc1 [PP0343] ([NMeL]I[NMeA][Aze][NPrPhe(4-CF3)][Sar][hPhe(3-Cl-4-CF3)]P[Ac5c][NMeGly(cPent)]D-Morpholide; lactam N-11) | C (A compound having a KD ratio of 0.1 or more and less than 3 is denoted as C) | B (a compound having 3 or more and less than 10 is denoted as B) |  |  |  |  |
| 34.6 | CC[C@H](C)[C@@H]1NC(=O)[C@H](CC(C)C)N(C)C(=O)C[C@@H](C(=O)N2CCOCC2)N(C)C(=O)[C@H](C2CCCC2)N(C)C(=O)C2(CCCC2)NC(=O)[C@@H]2CC(F)(F)CN2C(=O)[C@H](CCc2ccc(C(F)(F)F)c(Cl)c2)NC(=O)CN(C)C(=O)[C@H](Cc2ccc(F)cc2)N2CCCCC[C@@H](C2=O)N(C)C(=O)CN(C)C1=O [PP0966] | B (a compound having 3 or more and less than 10 is denoted as B) | B (a compound having 3 or more and less than 10 is denoted as B) |  |  |  |  |
| 44.1 | CCCN1C(=O)CN(C)C(=O)CN(C)C(=O)[C@H]([C@@H](C)CC)NC(=O)[C@H](CC(C)C)N(C)C(=O)C[C@@H](C(=O)N2CCOCC2)N(C)C(=O)[C@H](C2CCCC2)N(C)C(=O)C2(COC2)NC(=O)[C@@H]2CCCN2C(=O)[C@H](CCc2ccc(C(F)(F)F)c(Cl)c2)NC(=O)CN(C)C(=O)[C@@H]1Cc1ccc(C(F)(F)F)cc1 [PP1922] ([NMeL]I[Sar][Sar][NPrPhe(4-CF3)][Sar][hPhe(3-Cl-4-CF3)]P[Ac4c(3-oxa)][NMeGly(cPent)][NMeD]-Morpholide; lactam N-11) |  |  | B (a compound having 3 or more and less than 10 is denoted as B) | C (A compound having a KD ratio of 0.1 or more and less than 3 is denoted as C) |  |  |
| 23.3 | CCO[C@@H]1C[C@H]2C(=O)NC3(CC(C)(C)C3)C(=O)N(C)[C@@H](C(CC)CC)C(=O)N(C)[C@H](C(=O)N(C)C)CC(=O)N(C)[C@@H](CC3CCC3)C(=O)N[C@@H]([C@@H](C)CC)C(=O)N(C)CC(=O)N(C)[C@H]3C/C=C\CCN(C3=O)[C@@H](Cc3ccc(C)cc3)C(=O)N(C)CC(=O)N[C@@H](CCc3cc(F)c(C(F)(F)F)c(F)c3)C(=O)N2C1 [PP2151] |  |  | A (a compound having 10 or more and less than 20 is denoted as A) | A (a compound having 10 or more and less than 20 is denoted as A) |  |  |
| 2.7 | CCO[C@@H]1C[C@H]2C(=O)N(C)C3(CC(C)(C)C3)C(=O)N(C)[C@@H](C3CCCC3)C(=O)N(C)[C@H](C(=O)N(C)C)CC(=O)N(C)[C@H]3CCC/C=C/c4ccc(cc4)C[C@@H](C(=O)N(C)CC(=O)N[C@@H](CCc4cc(F)c(C(F)(F)F)c(F)c4)C(=O)N2C1)N1CC/C=C\C[C@@H](C1=O)N(C)C(=O)CN(C)C(=O)[C@H]([C@@H](C)CC)NC3=O [PP3060] | B (a compound having 3 or more and less than 10 is denoted as B) | B (a compound having 3 or more and less than 10 is denoted as B) |  |  |  |  |
| 15.1 | CCO[C@@H]1C[C@H]2C(=O)NC3(CC(F)(F)C3)C(=O)N(C)[C@@H](C3CCCC3)C(=O)N(C)[C@H](CC)CC(=O)N(C)[C@@H](CC3CC3)C(=O)N[C@@H]([C@@H](C)CC)C(=O)N(C)CC(=O)N(C)[C@H]3C/C=C\CCN(C3=O)[C@@H](Cc3ccc(C(F)(F)F)cc3)C(=O)N(C)CC(=O)N[C@@H](CCc3cc(F)c(C(F)(F)F)c(F)c3)C(=O)N2C1 [PP1633] |  |  |  |  | A (a compound having 10 or more and less than 20 is denoted as A) | B (a compound having 3 or more and less than 10 is denoted as B) |
| 2.6 | CC[C@H](C)[C@@H]1NC(=O)[C@@H]2CCCCCc3ccc(cc3)C[C@@H](C(=O)N(C)CC(=O)N[C@@H](CCc3ccc(C(F)(F)F)c(OC)c3)C(=O)N3C[C@H](OC(C)C)C[C@H]3C(=O)NC3(CC(C)(C)C3)C(=O)N(C)[C@@H](C3CCCC3)C(=O)N(C)[C@H](C(=O)N(C)C)CC(=O)N2C)N2CC/C=C\C[C@@H](C2=O)N(C)C(=O)CN(C)C1=O [PP3072] | A (a compound having 10 or more and less than 20 is denoted as A) | B (a compound having 3 or more and less than 10 is denoted as B) |  |  |  |  |
| 49.6 | CC[C@H](C)[C@@H]1NC(=O)[C@H](CC(C)C)N(C)C(=O)C[C@@H](C(=O)N2CCOCC2)N(C)C(=O)[C@H](C2CCCC2)N(C)C(=O)C2(CCCC2)NC(=O)[C@@H]2CCCN2C(=O)[C@H](CCc2ccc(C(F)(F)F)c(Cl)c2)NC(=O)CN(C)C(=O)[C@H](Cc2ccc(C)cc2)N(CC(C)C)C(=O)[C@@H]2CCN2C(=O)[C@H](C)N(C)C1=O [PP0056] ([NMeL]I[NMeA][Aze][X40][Sar][hPhe(3-Cl-4-CF3)]P[Ac5c][NMeGly(cPent)][NMeD]-Morpholide; lactam N-11) | C (A compound having a KD ratio of 0.1 or more and less than 3 is denoted as C) | B (a compound having 3 or more and less than 10 is denoted as B) |  |  |  |  |
| 18.4 | CCCN1C(=O)CN(C)C(=O)CN(C)C(=O)[C@H]([C@@H](C)CC)NC(=O)[C@H](CC(C)C)N(C)C(=O)C[C@@H](C(=O)N2CCOCC2)N(C)C(=O)[C@H](C2CCCCC2)N(C)C(=O)C2(CCC2)NC(=O)[C@@H]2CCCN2C(=O)[C@H](CCc2ccc(C(F)(F)F)c(Cl)c2)NC(=O)CN(C)C(=O)[C@@H]1Cc1ccc(C(F)(F)F)cc1 [PP1928] ([NMeL]I[Sar][Sar][NPrPhe(4-CF3)][Sar][hPhe(3-Cl-4-CF3)]P[Ac4c][NMeChg][NMeD]-Morpholide; lactam N-11) |  |  | B (a compound having 3 or more and less than 10 is denoted as B) | B (a compound having 3 or more and less than 10 is denoted as B) |  |  |
| 34.8 | CCCN1C(=O)CN(C)C(=O)CN(C)C(=O)[C@H]([C@@H](C)CC)NC(=O)[C@H](CC(C)C)N(C)C(=O)C[C@@H](C(=O)N(C)C)NC(=O)[C@H](C2CCCC2)N(C)C(=O)C2(CCC2)NC(=O)[C@@H]2CC(F)(F)CN2C(=O)[C@H](CCc2ccc(C(F)(F)F)c(Cl)c2)NC(=O)CN(C)C(=O)[C@@H]1Cc1ccc(C(F)(F)F)cc1 [PP0358] ([NMeL]I[Sar][Sar][NPrPhe(4-CF3)][Sar][hPhe(3-Cl-4-CF3)][Pro(4,4-F2)][Ac4c][NMeGly(cPent)]D-NMe2; lactam N-11) | B (a compound having 3 or more and less than 10 is denoted as B) | C (A compound having a KD ratio of 0.1 or more and less than 3 is denoted as C) |  |  |  |  |
